Experiments:
[1] = Toxicity in African green monkey 7972 model infected with Yersinia pestis Colorado 92 assessed as total white blood cell count at 25 mg/kg, iv administered within 6 hrs post onset of sustained fever as 30 mins infusion for 10 days (reference value: 6.9 10^3/microL); assay type: organism-based; conditions: chlorocebus aethiops, in vivo
[2] = AUC (0 to 24 hrs) in African green monkey blood at 35 mg/kg administered as iv infusion twice daily for 7 consecutive days measured on day 1 by LC-MS/MS analysis; assay type: ADME, organism-based; set-up: dose 35 mg/kg, time < 24 hr, route intravenous; conditions: chlorocebus aethiops
African green monkey [3] = assay: Toxicity in African green monkey 7643 model infected with Yersinia pestis Colorado 92 assessed as serum alanine aminotransferase level at 25 mg/kg, iv administered within 6 hrs post onset of sustained fever as 30 mins infusion for 10 days (reference value: 53 IU/L); assay type: organism-based; conditions: chlorocebus sabaeus, in vivo
[4] = Cmax in African green monkey blood at 25 mg/kg administered as iv infusion twice daily for 7 consecutive days measured on day 7 by LC-MS/MS analysis; assay type: ADME, organism-based; set-up: dose 25 mg/kg, route intravenous; conditions: chlorocebus aethiops
Yersinia pestis [5] = assay: (§1) Antibacterial activity against Yersinia pestis Colorado 92 infected in African green monkey B6988 model assessed as bacterial burden in heart at 6.25 mg/kg, iv administered within 6 hrs post onset of sustained fever as 30 mins infusion for 5 days (reference value: 2.6 10^7CFU/g); assay type: functional, CO92
Yersinia pestis [6] = assay: Antibacterial activity against Yersinia pestis Colorado 92 infected in African green monkey B6127 model assessed as bacterial burden in liver at 25 mg/kg, iv administered within 6 hrs post onset of sustained fever as 30 mins infusion for 10 days (reference value: 5.2 10^8CFU/g); assay type: functional, CO92
African green monkey [7] = assay: Toxicity in African green monkey 8067 model infected with Yersinia pestis Colorado 92 assessed as blood urea nitrogen level at 25 mg/kg, iv administered within 6 hrs post onset of sustained fever as 30 mins infusion for 10 days (reference value: 13 mg/dl); assay type: organism-based; conditions: chlorocebus sabaeus, in vivo
Yersinia pestis [8] = assay: Antibacterial activity against Yersinia pestis Colorado 92 infected in African green monkey B6872 model assessed as bacterial burden in lung at 25 mg/kg, iv administered within 6 hrs post onset of sustained fever as 30 mins infusion for 5 days (reference value: 7.7 10^8CFU/g); assay type: functional, organism-based; conditions: CO92
African green monkey [9] = assay: Toxicity in African green monkey B6428 model infected with Yersinia pestis Colorado 92 assessed as serum gamma glutamyl-transferase level at 25 mg/kg, iv administered within 6 hrs post onset of sustained fever as 30 mins infusion for 10 days (reference value: 31 IU/L); assay type: organism-based; conditions: chlorocebus sabaeus, in vivo
Yersinia pestis [10] = assay: Antibacterial activity against Yersinia pestis Colorado 92 infected in African green monkey B6436 model assessed as bacterial burden in blood at 25 mg/kg, iv administered within 6 hrs post onset of sustained fever as 30 mins infusion for 5 days (reference value: 1.2 10^7CFU/ml); assay type: functional, organism-based; conditions: CO92
Yersinia pestis [11] = assay: Antibacterial activity against Yersinia pestis Colorado 92 infected in African green monkey B6415 model assessed as bacterial burden in lung at 25 mg/kg, iv administered within 6 hrs post onset of sustained fever as 30 mins infusion for 5 days (reference value: 7.7 10^8CFU/g); assay type: functional, CO92
African green monkey [12] = assay: Toxicity in African green monkey 7972 model infected with Yersinia pestis Colorado 92 assessed as serum alanine aminotransferase level at 25 mg/kg, iv administered within 6 hrs post onset of sustained fever as 30 mins infusion for 10 days (reference value: 30 IU/L); assay type: organism-based; conditions: chlorocebus sabaeus, in vivo
Yersinia pestis [13] = assay: Antibacterial activity against Yersinia pestis Colorado 92 infected in African green monkey B6783 model assessed as bacterial burden in kidney at 12.5 mg/kg, iv administered within 6 hrs post onset of sustained fever as 30 mins infusion for 5 days (reference value: 7.1 10^7CFU/g); assay type: functional, CO92
Yersinia pestis [14] = assay: Antibacterial activity against Yersinia pestis Colorado 92 infected in African green monkey B6672 model assessed as bacterial burden in heart at 12.5 mg/kg, iv administered within 6 hrs post onset of sustained fever as 30 mins infusion for 5 days (reference value: 2.6 10^7CFU/g); assay type: functional, CO92
African green monkey [15] = assay: Toxicity in African green monkey B6408 model infected with Yersinia pestis Colorado 92 assessed as serum alanine aminotransferase level at 25 mg/kg, iv administered within 6 hrs post onset of sustained fever as 30 mins infusion for 10 days (reference value: 109 IU/L); assay type: organism-based; conditions: chlorocebus sabaeus, in vivo
Yersinia pestis [16] = assay: Antibacterial activity against Yersinia pestis Colorado 92 infected in African green monkey B6861 model assessed as bacterial burden in heart at 6.25 mg/kg, iv administered within 6 hrs post onset of sustained fever as 30 mins infusion for 5 days (reference value: 2.6 10^7CFU/g); assay type: functional, CO92
African green monkey [17] = assay: Toxicity in African green monkey 7929 model infected with Yersinia pestis Colorado 92 assessed as serum creatinine level at 25 mg/kg, iv administered within 6 hrs post onset of sustained fever as 30 mins infusion for 10 days (reference value: 1 mg/dl); assay type: organism-based; conditions: chlorocebus sabaeus, in vivo
Yersinia pestis [18] = assay: Antibacterial activity against Yersinia pestis Colorado 92 infected in African green monkey assessed as survival of monkey at 25 mg/kg, iv administered within 6 hrs post onset of sustained fever as 30 mins infusion for 5 days; assay type: functional; conditions: CO92, iv
African green monkey [19] = assay: Toxicity in African green monkey 7929 model infected with Yersinia pestis Colorado 92 assessed as serum lactate dehydrogenase level at 25 mg/kg, iv administered within 6 hrs post onset of sustained fever as 30 mins infusion for 10 days (reference value: 653 IU/L); assay type: organism-based; conditions: chlorocebus sabaeus, in vivo
Yersinia pestis [20] = assay: Antibacterial activity against Yersinia pestis Colorado 92 infected in African green monkey B6436 model assessed as bacterial burden in spleen at 25 mg/kg, iv administered within 6 hrs post onset of sustained fever as 30 mins infusion for 5 days (reference value: 1.6 10^9CFU/g); assay type: functional, organism-based; conditions: CO92
African green monkey [21] = assay: Toxicity in African green monkey B6127 model infected with Yersinia pestis Colorado 92 assessed as weight loss at 25 mg/kg, iv administered within 6 hrs post onset of sustained fever as 30 mins infusion for 10 days measured from day 7 to 14 post dose; assay type: organism-based; conditions: chlorocebus sabaeus, in vivo
African green monkey [22] = assay: Toxicity in African green monkey B6408 model infected with Yersinia pestis Colorado 92 assessed as blood urea nitrogen level at 25 mg/kg, iv administered within 6 hrs post onset of sustained fever as 30 mins infusion for 10 days (reference value: 22 mg/dl); assay type: organism-based; conditions: chlorocebus sabaeus, in vivo
Yersinia pestis [23] = assay: Antibacterial activity against Yersinia pestis Colorado 92 infected in African green monkey B6873 model assessed as bacterial burden in spleen at 12.5 mg/kg, iv administered within 6 hrs post onset of sustained fever as 30 mins infusion for 5 days (reference value: 1.6 10^9CFU/g); assay type: functional, organism-based; conditions: CO92
Yersinia pestis [24] = assay: as §1, with “B6960” for “B6988”, “tracheobronchial lymph nodes” for “heart”, “7.7 10^9CFU/g)” for “2.6 10^7CFU/g)”; assay type: functional, CO92, Lymph node
African green monkey [25] = assay: Toxicity in African green monkey B6428 model infected with Yersinia pestis Colorado 92 assessed as blood urea nitrogen level at 25 mg/kg, iv administered within 6 hrs post onset of sustained fever as 30 mins infusion for 10 days (reference value: 16 mg/dl); assay type: organism-based; conditions: chlorocebus sabaeus, in vivo
African green monkey [26] = assay: Toxicity in African green monkey assessed as effect on serum creatinine level at 25 mg/kg administered as iv infusion twice daily for 7 consecutive days measured on day 7 by LC-MS/MS analysis; assay type: organism-based; conditions: chlorocebus sabaeus, in vivo

For `CN[C@@H]1[C@@H](O)[C@@H](O[C@@H]2[C@@H](O)[C@H](O[C@H]3OC(CNCCO)=CC[C@H]3N)[C@@H](N)C[C@H]2NC(=O)[C@@H](O)CCN)OC[C@]1(C)O` [PLAZOMICIN], the Activity [1] was 7.6 ×10³ /uL, the AUC(0-t) at 24 h [2] was 306 µg·h/mL and the Activity (African green monkey [3]) was 43 IU/L. For the same compound, the Cmax [4] was 106 µg/mL, the Activity (Yersinia pestis [5]) was 4.5 ×10⁶ CFU/g and the Activity (Yersinia pestis [6]) was 44 CFU/g. The Activity (African green monkey [7]) was 21 mg/dL, the Activity (Yersinia pestis [8]) was “Below limit of detection” and the Activity (African green monkey [9]) was 27 IU/L. For the same compound, the Activity (Yersinia pestis [10]) was “Below limit of detection”, the Activity (Yersinia pestis [11]) was 3.2 ×10⁹ CFU/g and the Activity (African green monkey [12]) was 36 IU/L. For the same compound, the Activity (Yersinia pestis [13]) was 76 CFU/g, the Activity (Yersinia pestis [14]) was 29 CFU/g and the Activity (African green monkey [15]) was 94 IU/L. For the same compound, the Activity (Yersinia pestis [16]) was 16 CFU/g, the Activity (African green monkey [17]) was 0.9 mg/dL and the survival at 25 mg/kg (Yersinia pestis [18]) was 69%. The Activity (African green monkey [19]) was 496 IU/L, the Activity (Yersinia pestis [20]) was “Below limit of detection” and the Activity (African green monkey [21]) was “Toxic”. For the same compound, the Activity (African green monkey [22]) was 20 mg/dL, the Activity (Yersinia pestis [23]) was “Below limit of detection” and the Activity (Yersinia pestis [24]) was 1.6 ×10⁷ CFU/g. For the same compound, the Activity (African green monkey [25]) was 26 mg/dL and the Activity (African green monkey [26]) was 0.55 mg/dL.

Reference: ChEMBL document CHEMBL3868595, “Plazomicin is effective in a non-human primate pneumonic plague model” (Bioorg Med Chem, 2016)
